Measurements from a melting point compilation (Tetko et al.; mined from patent text by program, amines drawn as free bases though some values may be those of a salt).

First: CC(C)Oc1ccc(CCCOc2cc(CCC(=O)O)n(-c3ccccc3)n2)c(Oc2ccc(C(F)(F)F)cn2)c1
Second: CC(C)(C)c1cc(C(=O)NCc2ccc3c(Br)c(OC(Cc4ccccc4)C(=O)O)ccc3c2)cc(C(C)(C)C)c1 (centres undefined)
The melting point of the first is lower: 80 to 82 °C for the first, 160 to 163 °C for the second.

Compared with `Nc1ccc2nc3n(c2c1)CC(C(=O)OCc1ccccc1)NC3` (centres undefined), `O=C(Nc1ccc(F)cn1)c1ccc(NCc2ccccc2)nc1` is higher in melting point: 115 to 118 °C for the first, 167 to 168 °C for the second.

First: CC1(C)CC(=O)Nc2c(Br)cc3c(c21)OC(CBr)C3 (centres undefined)
Second: COc1ccc(Cl)cc1-c1cc(Cl)cc2c1OC(CN)C2 (centres undefined)
The melting point of the first is higher: 237 to 239 °C for the first, 174 to 176 °C for the second.

First: O=C(c1cc(Br)c(O)c(Br)c1)c1c(CCc2ccccc2)oc2ccccc12
Second: COc1ccc(CNC(=O)c2ccc3ccccc3c2Br)cc1
The melting point of the first is lower: 153 to 154 °C for the first, 155 °C for the second.

First: CN1C(=O)OC(C)(C)c2cc(-c3cc(F)cc(Br)c3)ccc21
Second: COc1ccc(-c2cc(CO)c(=O)n(CCCc3ccc(F)cc3)n2)cc1F
The melting point of the first is higher: 157 to 158 °C for the first, 130 to 133 °C for the second.

First: NC(=O)c1cc(C(=O)O)c2c(c1)C(C(=O)O)CCN2 (centres undefined)
Second: O=C(NC(CO)CO)c1ccc2cc(C(=O)O)[nH]c2c1
The melting point of the first is higher: 265 to 266 °C for the first, 240 to 245 °C for the second.

First: O=[N+]([O-])c1ccc(N(CCBr)S(=O)(=O)c2ccccc2)cc1
Second: CCCc1nc2cc([N+](=O)[O-])ccc2n1Cc1ccc(C(=O)OCC)cc1
The melting point of the first is higher: 168 °C for the first, 136 to 138 °C for the second.

First: Nc1cccc(C2CN3CCSC3=N2)c1 (centres undefined)
Second: Brc1csc(-c2cn([C@H]3CN4CCC3CC4)nn2)c1
The melting point of the first is higher: 177 to 179 °C for the first, 106 °C for the second.

Compared with `Cc1nnc(-c2ccnc(NC(=O)NCc3ccccn3)c2)o1`, `Cc1ccc(N2C(=O)C(O)=C(C(=O)c3ccc(C(C)C)cc3)C2c2ccc(-c3nnc(C)o3)cc2)nn1` (centres undefined) is higher in melting point: 202 to 203 °C for the first, 293 °C for the second.

First: CC(C)(C)OC(=O)NCc1ccnc(Cl)n1
Second: CC(C)(C)CN1C(=O)N(CC(=O)O)CC(c2ccccc2Cl)c2cc(Cl)ccc21 (centres undefined)
The melting point of the first is lower: 86 to 88 °C for the first, 228 to 231 °C for the second.

First: COc1cc(C(C)C)ccc1C1COc2c(C)c(C)c(N)c(C)c21 (centres undefined)
Second: CC(=O)Oc1ccc(S(=O)(=O)c2cnc(C)nc2Nc2c(C)cc(C)cc2C)cc1
The melting point of the first is lower: 120 to 121 °C for the first, 142 to 144 °C for the second.

First: O=C1CCC(N2C(=O)c3ccc(CNCc4cc5ccccc5o4)cc3C2=O)C(=O)N1 (centres undefined)
Second: COc1ccc(Cc2cccc(-c3c(O)c4ccc(Cl)cc4[nH]c3=O)c2)cc1
The melting point of the first is lower: 133 to 135 °C for the first, 282 to 284 °C for the second.

Compared with `O=C1CN(c2cccc(Cl)c2)NC(=O)N1`, `O=C1COCCN1c1ccc(NC[C@H](O)CCl)cc1` is lower in melting point: 224 to 226 °C for the first, 138 to 139 °C for the second.

First: CC(C)CC1(C(C)C(=O)O)CCN(CCc2ccccc2)C1=O (centres undefined)
Second: CC(=O)N1CCCCNC1=NC(c1ccccc1)c1ccccc1
The melting point of the first is lower: 94 to 95 °C for the first, 250 to 252 °C for the second.

First: Cc1c(F)c(N2CCC(n3ccnn3)CC2)c(F)c2c1c(=O)c(C(=O)O)cn2C1CC1
Second: C=Cc1cc(OC(C)=O)cc2nc(-c3ccc(OC(C)=O)c(F)c3)oc12
The melting point of the first is higher: 261 to 263 °C for the first, 154 to 156 °C for the second.

Compared with `CCc1cc(O)n2ncc(CC)c2n1`, `CCOC(=O)C1=C(C)NC(c2csc(C)n2)=NC1c1ccc(O)cc1` (centres undefined) is lower in melting point: greater than 310 °C for the first, 208 to 210 °C for the second.

First: CCOC(=O)c1ccc(NC(=O)C=Cc2ccc(OC)cc2)cc1
Second: CCOC(=O)c1ccc(OC(=O)c2cccc(C(=O)Oc3ccc(C(=O)OCC)cc3)c2)cc1
The melting point of the first is higher: 163 to 166 °C for the first, 123 to 125 °C for the second.

First: COc1ccc(S(=O)(=O)NC=NCCSCc2csc(NC=NN)n2)cc1
Second: COc1cc2c(cc1N1CCN(CC3Cc4ccccc4C3)CC1)OC=CCO2
The melting point of the first is lower: 68 to 76 °C for the first, 120 to 122 °C for the second.

First: CN(Cc1ccc(F)cc1)C(=O)c1cnc2c([N+](=O)[O-])cccc2c1Cl
Second: Cc1cc(I)ccc1Nc1c(-c2nnc(S)o2)ccc(F)c1F
The melting point of the first is lower: 135 to 137 °C for the first, 232 to 233 °C for the second.

`O=C1N[C@H](C(=O)O)CSCCCCCCCC1CS` (some centres undefined) gave a melting point of 169 to 173 °C.
